# Source: PMC9775191, “A Subset Screen of the Compounds Australia Scaffold Library Identifies 7-Acylaminodibenzoxazepinones as Potent and Selective Hits for Anti-Giardia Drug Discovery” (Biomedicines, 2022)
# Tested on: G. duodenalis BRIS/91/HEPU/1279
# Experiment: Primary Giardia screen at 10 µM (live-cell imaging, automated counting)
# Type: cell-based, Giardia duodenalis
# Settings: for % Inhibition n=1 48h / % Inhibition n=1 24h: first singlicate assay; for % Inhibition n=2 24h / % Inhibition n=2 48h: re-assessment
# Method in brief: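 Compounds were tested once each at 10 μM final (0.2% DMSO) in culture medium under 3% O2, 5% CO2 in N2. Growth was read at 24 and 48 h by live-cell imaging with automated counting, and inhibition expressed as percent growth versus 0.2% DMSO vehicle after media-only background subtraction.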
Structure (SMILES),% Inhibition n=1 48h [%],further results
COc1ccc(C2CCCN2C(=O)c2cnn(-c3ccc(C(F)(F)F)cn3)c2C)cc1 (stereo not drawn) [SN00774591],35.2,
CN(C)[C@@H]1CN(Cc2ccc3[nH]ccc3c2)CC[C@H]1CO [SN00801277],6.2,
Cn1ncc2c(NC3CCN(Cc4ccncc4)CC3)ncnc21 [SN00771916],0.0,
CC(C)(C)C(=O)N1CCC(C(=O)N2CC=C(c3ccc(F)cc3)CC2)CC1 [SN00770003],0.0,
CCc1ccc(NC(=O)Cn2nc3n(c2=O)CCCC3)cc1 [SN00801641],9.1,
O=C(/C=C/c1cccc([N+](=O)[O-])c1)Nc1ccc2c(c1)nc1n2CCCCC1 [SN00770035],0.0,
Cc1cccc(Cn2c(CNS(=O)(=O)c3ccccc3)nc3cccnc32)c1 [SN00793267],9.9,
CC1(c2ccco2)NC(=O)N(NC(=O)c2sc3ccccc3c2Cl)C1=O (stereo not drawn) [SN00771283],16.0,
CCn1ccnc1CN1CCCN(C(=O)c2cnc(C)cn2)CC1 [SN00771476],10.9,
CCOc1ccc(-c2nc3sc4cc(C)ccc4n3c2NCCOC)cc1 [SN00795352],0.0,
Cc1ccc(S(=O)(=O)n2ccn(C(=O)c3ccccc3C)c2=O)cc1 [SN00789027],0.0,
COCCN1CCC(N2CCCN(C(=O)NCCc3ccccc3)CC2)C1=O (stereo not drawn) [SN00802413],1.7,
Cc1ccc(C(=O)N2CCN(c3nc4ccccc4n4cccc34)CC2)cc1 [SN00785395],25.5,
O=C(c1noc2ncnc(N3CCCC3)c12)N1CCN(c2ccccn2)CC1 [SN00791654],7.3,
O=C(N[C@H]1C[C@@H]2C[C@H]1N(C(=O)Nc1ccc3c(c1)CCC3)C2)c1ccccc1 [SN00800945],6.6,
CCc1nnc(-c2nnc(NCc3ccc4c(c3)OCO4)c3ccccc23)o1 [SN00800558],0.0,
CC12CC(c3ccccc3O1)N(C(=O)c1cccc(F)c1)C(=O)N2c1ccccc1 (stereo not drawn) [SN00784677],0.0,
CCOC(=O)N1CCN(c2cc(-c3nc(-c4cccc(OC)c4OC)no3)c3ccccc3n2)CC1 [SN00796395],18.1,
O=C(c1nnn(-c2ccc(Cl)cc2)c1-c1cccnc1)N1CCCCC1 [SN00796543],20.4,
Cc1ccc2nc(C3=C(N)N(C4CCCCCC4)CC3=O)[nH]c2c1 [SN00785773],29.0,
CC(C)(C)NC(=O)CCN1CCc2[nH]nc(C(F)(F)F)c2C1 [SN00783032],9.6,
Cc1ccc(NC(=O)c2cnc3c(c2)c(=O)n(C)c(=O)n3-c2ccccc2)cc1 [SN00799453],0.0,
COCCn1cc2c3c(cccc31)CN(C(=O)c1cccc(Cl)c1)CC2 [SN00798558],26.2,
Cc1cc2n(CC(O)COc3ccccc3F)c(=O)c3ccccc3n2n1 (stereo not drawn) [SN00770617],17.7,
Cc1ccc(C(=O)N2CCC(Oc3ncccc3C(=O)N3CCCCC3)C2)c(C)c1 (stereo not drawn) [SN00800036],0.0,
Cc1cccc(CN2CCc3c(cc(C(=O)NC(C)(C)C)n3C)C2)c1 [SN00799594],0.0,

Structure (SMILES),% Inhibition n=1 48h [%],further results
CCn1cc(CN(C)C(=O)c2cnn3c(C(F)F)cc(-c4ccc(OC)cc4)nc23)c(C)n1 [SN00783837],29.0,
CCc1nc(C)c2c(C)c(C(=O)N3CCN(Cc4ccc(OC)c(F)c4)CC3)sc2n1 [SN00779632],14.8,
CC1CCCCN1S(=O)(=O)c1ccc(NC(=O)c2cc(-c3cccs3)on2)cc1 (stereo not drawn) [SN00786280],10.1,
COC(=O)c1ccccc1NC(=O)Nc1ccc2[nH]c3c(c2c1)CN(C(C)C)CC3 [SN00798231],4.3,
CC(=O)NCc1ccc(C(=O)N2CCCCC(N3CCCC3)C2)cc1 (stereo not drawn) [SN00783239],4.5,
CC(=O)c1cccc(NC(=O)CN2CCC(c3nc(-c4ccccc4)no3)CC2)c1 [SN00799373],0.0,
CCOc1cc(F)ccc1NC(=O)N1CCCC(N2CCCC2=O)C1 (stereo not drawn) [SN00782090],7.0,
COc1cccc(CNC(=O)c2nsc(C(=O)NCc3ccccc3F)c2N)c1 [SN00797759],13.9,
COc1ccc(S(=O)(=O)N2CC=C(C(=O)NCc3ccc(C)cc3)CC2)cc1 [SN00785474],23.4,
O=C(Nc1ccccc1)NC(c1ccccc1)c1nnc(-c2ccccc2Cl)o1 (stereo not drawn) [SN00784775],0.0,
CCc1ncc2c(n1)CN(Cc1nc(-c3ccco3)oc1C)CC2 [SN00783272],0.0,
Cc1ccccc1C1CCN(C(=O)C2CCCC2)C1 (stereo not drawn) [SN00782733],7.3,
O=C(Cn1c(=O)c2c(ncn2C2CCCC2)n(Cc2ccccc2)c1=O)Nc1cc(Cl)ccc1F [SN00773912],0.0,
CN1CCC(Oc2ncccc2C(=O)N2CCOCC2)CC1 [SN00800013],15.5,
COC(=O)c1c(NC(=O)Cn2nc(C(F)(F)F)c(Br)c2C)sc2c1CCCC2 [SN00794352],23.2,
CCc1ccc(-n2c(CN3CCN(S(C)(=O)=O)CC3)nc3cccnc32)cc1 [SN00796120],7.0,
CCOc1ccc(S(=O)(=O)Nc2cccc(-c3ccc(OC)nn3)c2)cc1 [SN00792604],10.8,
CC(C)S(=O)(=O)N1CCC(N(C)C2CCOCC2)CC1 [SN00801518],0.0,
CCc1ccc(CNC(=O)c2cc3ccncc3n2C)cc1 [SN00798182],20.1,
Cc1csc(C2CCCCN2)n1 (stereo not drawn) [SN00781548],6.1,
Cc1ccc(NC(=O)Cn2c(=O)nc(NC3CCCC3)c3ccccc32)cc1C [SN00797075],0.0,
CCOc1ccc(N/C(=N\S(C)(=O)=O)Nc2cc(C)c(Cl)cc2OC)cc1 [SN00795110],18.1,
CCOC(=O)c1cc(-c2ccccc2)n(CCC(=O)N2CCn3c2nc2ccccc23)c1C [SN00794728],10.1,
Cc1nc(N2CCCC2)c2c(C)c(C(=O)Nc3ccccc3Cl)sc2n1 [SN00793643],49.2,
CCc1nnc2n1CCN(Cc1csc(-c3ccsc3)n1)C2 [SN00782656],24.2,
CCn1cc(C(=O)Nc2ccccc2O)c(=O)c2cc(F)c(N3CCN(C(C)=O)CC3)cc21 [SN00802927],0.0,

Structure (SMILES),% Inhibition n=1 48h [%],further results
CC(C)(C)NS(=O)(=O)c1ccc(N2CCC(c3nnc4n3CCC4)CC2)c([N+](=O)[O-])c1 [SN00772456],4.6,
COc1cc(C(=O)NCC2(c3ccccc3)CCOCC2)cc(OC)c1OC [SN00783529],6.5,
Cc1nc(C2CCN(CC(=O)NC(c3ccc(F)cc3)c3cccs3)CC2)n[nH]1 (stereo not drawn) [SN00772581],24.6,
COC(=O)c1cc(C(=O)Nc2c3c(nn2C)CCC3)cc([N+](=O)[O-])c1 [SN00777586],12.1,
CCOC(=O)CCNC(=O)N1CCc2c(nc3cc(-c4ccccc4Cl)[nH]n3c2=O)C1 [SN00800844],13.6,
CCCN1C(=O)c2cc(C(=O)Nc3ccccc3OC)ccc2C1Nc1ccccc1OC (stereo not drawn) [SN00785171],21.9,
O=C(C1CC(=O)N(c2cccc(-c3noc(C4CCC4)n3)c2)C1)N1CCN(c2ccccc2F)CC1 (stereo not drawn) [SN00789791],5.7,
CC(=O)N1N=C2C3CCN(CC3)[C@@H]2[C@@H]1c1cccc2ccccc12 (relative stereo) [SN00783777],0.0,
COc1cccc(CNC(=O)C2CCCN(c3nccc4c(C)nn(C)c34)C2)c1 (stereo not drawn) [SN00797953],0.0,
CCn1cc(CN2CCC(OCc3nc(C4CC4)no3)CC2)cn1 [SN00801138],0.0,
CCOC(=O)c1csc(-n2nc(CC(C)C)cc2C(F)(F)F)n1 [SN00802831],29.0,
Cc1sc2cc(C(=O)N3CCN(c4ccc(F)cc4)CC3)[nH]c2c1CN1CCOCC1 [SN00798508],27.9,
O=C(NCc1ccco1)c1cnn2c1N[C@@H](c1ccc(Br)cc1)C[C@H]2C(F)(F)F (relative stereo) [SN00783428],35.3,Average % Inhibition 24h: 15.1%; % Inhibition n=1 24h: 27.8%; % Inhibition n=2 24h: 2.5%; Average % Inhibition 48h: 18.5%; % Inhibition n=2 48h: 1.8%
Cc1ncccc1CNCC1CN(C2CC2)CCO1 (stereo not drawn) [SN00783283],14.5,
O=C1C2C(c3ccc(F)cc3)NC(Cc3ccccc3)(C(=O)O)C2C(=O)N1c1ccc(F)cc1 (stereo not drawn) [SN00784528],0.7,
CCCNC1=C(C(=O)Nc2ccc(F)cc2)S(=O)(=O)c2ccccc21 [SN00794224],46.5,
COc1ccc(NC(=O)N2CCN(CC3CCCCN3C)CC2)cn1 (stereo not drawn) [SN00773239],0.0,
Cc1cc2c(cc1S(=O)(=O)NC(C)C)N(C(=O)C1CC1)CC2 [SN00798844],15.5,
CCCNC(=O)N1CCN(Cc2nc3cccnc3n2-c2ccc(CC)cc2)CC1 [SN00796091],0.0,
O=C(Cn1c(-c2ccccn2)noc1=O)C12CC3CC(CC(C3)C1)C2 [SN00781381],21.7,
c1ccc(-n2nnnc2N2CCN(C3CC3)CC2)cc1 [SN00770081],0.0,
Cc1ccnc(N2CCCC(C(=O)N3CC=C(c4ccccc4)CC3)C2)n1 (stereo not drawn) [SN00795039],57.6,Average % Inhibition 24h: 18.0%; % Inhibition n=1 24h: 29.9%; % Inhibition n=2 24h: 6.1%; Average % Inhibition 48h: 46.1%; % Inhibition n=2 48h: 34.6%
COc1ccc(OC)c(C2C(C(=O)c3ccco3)=C(O)C(=O)N2c2cc(C)on2)c1 (stereo not drawn) [SN00780182],21.6,
Cc1ccc(NC(=O)Cn2c(C)cc(C)c(-c3nc(-c4ccc5c(c4)OCO5)no3)c2=O)cc1 [SN00792912],3.6,
COc1ccc(-c2ncc3c(n2)CCN(C(=O)c2ccccc2C(F)(F)F)C3)cc1 [SN00799000],0.0,
